Assays:
pS6 = pS6 in PC3 tumors, MSD (Compound 1); assay type: in vivo, SCID mice; settings: for pS6 inhibition in tumor: through 24 hours
Method: The plasma and tumor samples were collected at various time points following compound administration as described.
Mice were monitored daily for clinical signs and body weight changes. At the end of the study, mice were euthanized and plasma and tumor samples were collected for PK/PD determination. PD markers, pS6 and pAkt, were measured using MSD technology.
After the last measurement, the experiment was terminated by taking the plasma and tumor samples for PK and PD measurements. Compound concentrations in plasma and tumor were determined by LC-MS/MS. PD markers, pS6 and pAkt, were measured using MSD technology.
At predetermined time points following dosing, mice were euthanized and plasma and tumor samples were collected for PK/PD determination. Compound concentrations in plasma and tumor were determined by LC-MS/MS. PD markers, pS6 and pAkt, were measured using Mesoscale technology.
For Mesoscale discovery assays, tissue samples were homogenized in lysis buffer containing protease and phosphatase inhibitors and centrifuged for 10 minutes at 1200 rpm at 4° C. Supernatants were sonicated for 1 minute at 4° C., aliquoted and stored at −80° C. Protein concentrations in samples were determined using BCA Protein Assay Reagent Kit (Thermo Scientific). Meso Scale Discovery kits and protocol for measuring the pS6 and pAkt/Total Akt kits were used. MSD 96-well plates spotted with pS6, pAkt/total Akt were blocked with blocking solution for 5 minutes followed by a wash with wash buffer. […] of tumor lysates were added to each well and incubated for 2 hours followed by a 4× wash with a wash buffer. Detection antibody was added to each well and incubated in the dark for 1 hour at 4° C. The plates were then washed and bound antigen was read using an MSD SECTOR™ instrument.

Akt(S473) = test: Phospho-Akt(S473) in PC3 cell lysates, MSD; assay type: cell-based, human; settings: PC3, 1 hour exposure; read-out: p-Akt (S473) IC50
Text: The direct substrate for TORC1 was 4E-BP 1(T46) and indirect downstream substrate was S6RP(S235/S236). The direct substrate for TORC2 was Akt(S473) and indirect downstream substrates measured were GSK3β(S9) and PRAS40(T246). Additionally, the phosphorylation status of Akt(T308), a phosphorylation site for PDK1 was monitored.
MSD® biomarker detection assays provide a rapid and convenient method for measuring the total and phosphorylated levels of protein targets within a single small volume sample. These assays are available in both single-plex and multiplex formats. In a single-plex assay, an antibody for a specific protein target is coated on one electrode (or spot) per well. […] MSD Read Buffer that provides the appropriate chemical environment for ECL is added and the plate is read using an MSD SECTOR™ Imager. […] The instrument measures intensity of the emitted light to afford a quantitative measure of the amount of phosphorylated Akt or S6RP present in the sample. […]
The assay plate was incubated with 150 μL of MSD Blocker A Solution for 1 hour with shaking at room temperature. […] Then 150 μL of 1×MSD Read Buffer T was added to each well. The plate was read on the SECTOR Imager plate reader. The Excel data was transferred to Activity Base and IC50 values were calculated.
All data was analyzed using XLfit from IDBS. […]

DNA-PKcs = test: Total DNA-PKcs immunohistochemistry in PC3 tumors (Compound 2); assay type: in vivo, SCID mice; settings: 5 mg/kg QD for 6 days, 2 hours after the last dose

Question: For `CO[C@H]1CC[C@H](N2C(=O)CNc3ncc(-c4ccc(C(C)(C)O)nc4)nc32)CC1` [Compound 1, 7-(6-(2-hydroxypropan-2-yl)pyridin-3-yl)-1-((1r,4r)-4-methoxycyclohexyl)-3,4-dihydropyrazino-[2,3-b]pyrazin-2(1H)-one], which “inhibition of pS6” value (pS6; 0.3 mg/kg single dose, 0.5 h, data not shown) is on record?
Answer: 81%

Question: And the pS6 inhibition (pS6; 0.3 mg/kg single dose, up to 2 hours, data not shown)?
Answer: Approximately 80%

Question: And the pS6 inhibition (pS6; 1 mg/kg single dose, up to 4 hours)?
Answer: Approximately 80%

Question: What about the “PD Marker Inhibition (%) pS6” value (pS6; 1 mg/kg single oral dose, 0.5 h) of the same compound?
Answer: 80.8%

Question: And the “PD Marker Inhibition (%) pS6” value (pS6; 1 mg/kg single oral dose, 2 h)?
Answer: 82.8%

Question: And the “PD Marker Inhibition (%) pS6” value (pS6; 1 mg/kg single oral dose, 4 h)?
Answer: 78.6%

Question: And the “PD Marker Inhibition (%) pS6” value (pS6; 1 mg/kg single oral dose, 6 h)?
Answer: 53.1%

Question: What about the “PD Marker Inhibition (%) pS6” value (pS6; 1 mg/kg single oral dose, 10 h) of the same compound?
Answer: 14.4%

Question: What about the “PD Marker Inhibition (%) pS6” value (pS6; 1 mg/kg single oral dose, 24 h) of the same compound?
Answer: 20.6%

Question: What about the “inhibition of pS6 in tumors” value (pS6; 10 mg/kg QD 5 days, 24 hours after the last dose) of the same compound?
Answer: 22%

Question: What about the “inhibition of pS6” value (pS6; 10 mg/kg single dose, up to 8 hours) of the same compound?
Answer: > 80%

Question: And the “PD Marker Inhibition (%) pS6” value (pS6; 10 mg/kg single oral dose, 1 h)?
Answer: 79.5%

Question: And the “PD Marker Inhibition (%) pS6” value (pS6; 10 mg/kg single oral dose, 3 h)?
Answer: 91.9%

Question: And the “PD Marker Inhibition (%) pS6” value (pS6; 10 mg/kg single oral dose, 8 h)?
Answer: 91.2%

Question: What about the “PD Marker Inhibition (%) pS6” value (pS6; 10 mg/kg single oral dose, 16 h) of the same compound?
Answer: 32.4%

Question: What about the “PD Marker Inhibition (%) pS6” value (pS6; 10 mg/kg single oral dose, 24 h) of the same compound?
Answer: 32.7%

Question: What about the “PD Marker Inhibition (%) pS6” value (pS6; 10 mg/kg single oral dose, 48 h) of the same compound?
Answer: 39.5%

Question: What about the “PD Marker Inhibition (%) pS6” value (pS6; 10 mg/kg single oral dose, 72 h) of the same compound?
Answer: 47.9%

Question: What about the “inhibition of pS6 levels” value (pS6; 25 mg/kg single dose, up to 24 hours) of the same compound?
Answer: > 80%

Question: What about the “PD Marker Inhibition (%) pS6” value (pS6; 25 mg/kg single oral dose, 1 h) of the same compound?
Answer: 87.9%

Question: What about the “PD Marker Inhibition (%) pS6” value (pS6; 25 mg/kg single oral dose, 3 h) of the same compound?
Answer: 95.1%

Question: And the “PD Marker Inhibition (%) pS6” value (pS6; 25 mg/kg single oral dose, 8 h)?
Answer: 92.3%

Question: And the “PD Marker Inhibition (%) pS6” value (pS6; 25 mg/kg single oral dose, 16 h)?
Answer: 92.1%

Question: What about the “PD Marker Inhibition (%) pS6” value (pS6; 25 mg/kg single oral dose, 24 h) of the same compound?
Answer: 83.7%

Question: And the “PD Marker Inhibition (%) pS6” value (pS6; 25 mg/kg single oral dose, 48 h)?
Answer: 47.2%

Question: What about the “PD Marker Inhibition (%) pS6” value (pS6; 25 mg/kg single oral dose, 72 h) of the same compound?
Answer: 68.3%

Question: What about the “pS6 inhibition in tumor” value (pS6; 30 mg/kg single oral dose) of the same compound?
Answer: 78%

Question: And the “pS6 inhibition in tumor” value (pS6; 100 mg/kg single oral dose)?
Answer: 91%

Question: What about the “both PD markers (pS6, pAKT) in tumors” value (pS6; 25 and 50 mg/kg QD, 24 hr timepoint, data not shown) of the same compound?
Answer: significantly inhibited

Question: And the IC50 (Akt(S473))?
Answer: 10 nM

Question: How did the “positive threshold area stained for DNA-PKcs vs vehicle” value (DNA-PKcs) turn out when `CCN1C(=O)CNc2ncc(-c3ccc(-c4nc[nH]n4)nc3C)nc21` [Compound 2, 1-ethyl-7-(2-methyl-6-(1H-1,2,4-triazol-3-yl)pyridin-3-yl)-3,4-dihydropyrazino[2,3-b]pyrazin-2(1H)-one] was run?
Answer: no significant difference
